Holding throughout (type): functional
Assay [1] has as its system Staphylococcus aureus. The assay is described as follows: Antimicrobial activity against methicillin-resistant Staphylococcus aureus ATCC 33591.
A further assay relates to Acinetobacter baumannii. The assay is described as follows: Antimicrobial activity against Acinetobacter baumannii ATCC 19606.
Assay [2] deals with Staphylococcus aureus. Put plainly: Antimicrobial activity against Staphylococcus aureus ATCC 29213.

Converted amounts (≈) assume the structure as drawn. Where only a bound is given, the exact number is not on record here.

Take `COc1c(Br)cc(/C=C2\O[C@H]([C@@H](Cl)CCNC(=N)N)NC2=O)cc1Br`: the results for the MIC in the assay with Staphylococcus aureus [1], against Acinetobacter baumannii and against Staphylococcus aureus [2] were 20 µg/mL (≈ 40.3 µM), 100 µg/mL (≈ 201 µM) and 12.5 µg/mL (≈ 25.2 µM), respectively.
The corresponding values for `COc1c(Br)cc(/C=C2\O[C@H](CCCNC(=N)N)NC2=O)cc1Br` are 32 µg/mL (≈ 69.2 µM), above 128 µg/mL and 32 µg/mL (≈ 69.2 µM).
The corresponding values for `CCCCCC1NC(=O)/C(=C/c2ccccc2)O1` (stereo not drawn) are 128 µg/mL (≈ 522 µM), above 128 µg/mL and 64 µg/mL (≈ 261 µM).
In the case of `CCCCCC1NC(=O)/C(=C/c2ccc(C)cc2)O1` (stereo not drawn), the MIC was above 128 µg/mL in the assay on Staphylococcus aureus [1], above 128 µg/mL with Acinetobacter baumannii and 32 µg/mL (≈ 123 µM) in the assay on Staphylococcus aureus [2].
For `CCCCCC1NC(=O)/C(=C/c2ccc(C(C)(C)C)cc2)O1` (stereo not drawn), the MIC in the assay with Staphylococcus aureus [1], with Acinetobacter baumannii and in the assay on Staphylococcus aureus [2] was above 128 µg/mL each time.
Turning to `CCCCCC1NC(=O)/C(=C/c2ccc(F)cc2)O1` (stereo not drawn), the MIC in the assay on Staphylococcus aureus [1], in the assay with Acinetobacter baumannii and with Staphylococcus aureus [2] was above 128 µg/mL throughout.
With `CCCCCC1NC(=O)/C(=C/c2ccc(Cl)cc2)O1` (stereo not drawn), the MIC against Staphylococcus aureus [1], against Acinetobacter baumannii and against Staphylococcus aureus [2] was above 128 µg/mL each time.
Take `CCCCCC1NC(=O)/C(=C/c2ccc(C(F)(F)F)cc2)O1` (stereo not drawn): the minimal inhibitory concentration (MIC) in the assay on Staphylococcus aureus [1] is 16 µg/mL (≈ 51.1 µM); in the assay on Acinetobacter baumannii, above 128 µg/mL; with Staphylococcus aureus [2] it was 16 µg/mL (≈ 51.1 µM).
With `CCCCCC1NC(=O)/C(=C/c2ccccc2[N+](=O)[O-])O1` (stereo not drawn), the MIC against Staphylococcus aureus [1], against Acinetobacter baumannii and in the assay on Staphylococcus aureus [2] was above 128 µg/mL throughout.
With `CCCCCC1NC(=O)/C(=C/c2cc(Br)c(OC)c(Br)c2)O1` (stereo not drawn), the values for the MIC against Staphylococcus aureus [1], in the assay on Acinetobacter baumannii and against Staphylococcus aureus [2] were 32 µg/mL (≈ 73.9 µM), above 128 µg/mL and 16 µg/mL (≈ 36.9 µM), respectively.
The corresponding values for `CCCCCC1NC(=O)/C(=C/c2ccc(OC)cc2)O1` (stereo not drawn) are above 128 µg/mL, above 128 µg/mL and above 128 µg/mL.
The corresponding values for `CCCCCC1NC(=O)/C(=C/c2ccc([N+](=O)[O-])cc2)O1` (stereo not drawn) are 32 µg/mL (≈ 110 µM), above 128 µg/mL and 32 µg/mL (≈ 110 µM).
The corresponding values for `CC(=O)NC[C@H]1CN(c2ccc(N3CCOCC3)c(F)c2)C(=O)O1` [LINEZOLID] are 1 µg/mL (≈ 2.96 µM), above 128 µg/mL and 0.5 µg/mL (≈ 1.48 µM).
`CN(C)[C@@H]1C(O)=C(C(N)=O)C(=O)[C@@]2(O)C(O)=C3C(=O)c4c(O)cccc4[C@@](C)(O)[C@H]3C[C@@H]12` [TETRACYCLINE]: the MIC with Staphylococcus aureus [1] was 128 µg/mL (≈ 288 µM); with Acinetobacter baumannii, 2 µg/mL (≈ 4.5 µM); against Staphylococcus aureus [2] it was 0.25 µg/mL (≈ 0.563 µM).
On to `CN[C@H](CC(C)C)C(=O)N[C@H]1C(=O)N[C@@H](CC(N)=O)C(=O)N[C@H]2C(=O)N[C@H]3C(=O)N[C@H](C(=O)N[C@H](C(=O)O)c4cc(O)cc(O)c4-c4cc3ccc4O)[C@H](O)c3ccc(c(Cl)c3)Oc3cc2cc(c3O[C@@H]2O[C@H](CO)[C@@H](O)[C@H](O)[C@H]2O[C@H]2C[C@](C)(N)[C@H](O)[C@H](C)O2)Oc2ccc(cc2Cl)[C@H]1O` [VANCOMYCIN], for which, in the assay on Acinetobacter baumannii, the MIC was above 128 µg/mL.

The term MIC denotes the lowest concentration found to suppress growth.

Values taken from ChEMBL document CHEMBL3627600, “Rapid synthesis and antimicrobial activity of novel 4-oxazolidinone heterocycles” (2015).
